ChEMBL document CHEMBL1128021, “Potent and selective inhibitors of gelatinase-a 1. hydroxamic acid derivatives” (Bioorg Med Chem Lett, 1994)

target: Stromelysin-1 (Homo sapiens, UniProt P08254); experiment: Inhibition of the stromelysin enzyme.
Sequence (P08254 whole entry): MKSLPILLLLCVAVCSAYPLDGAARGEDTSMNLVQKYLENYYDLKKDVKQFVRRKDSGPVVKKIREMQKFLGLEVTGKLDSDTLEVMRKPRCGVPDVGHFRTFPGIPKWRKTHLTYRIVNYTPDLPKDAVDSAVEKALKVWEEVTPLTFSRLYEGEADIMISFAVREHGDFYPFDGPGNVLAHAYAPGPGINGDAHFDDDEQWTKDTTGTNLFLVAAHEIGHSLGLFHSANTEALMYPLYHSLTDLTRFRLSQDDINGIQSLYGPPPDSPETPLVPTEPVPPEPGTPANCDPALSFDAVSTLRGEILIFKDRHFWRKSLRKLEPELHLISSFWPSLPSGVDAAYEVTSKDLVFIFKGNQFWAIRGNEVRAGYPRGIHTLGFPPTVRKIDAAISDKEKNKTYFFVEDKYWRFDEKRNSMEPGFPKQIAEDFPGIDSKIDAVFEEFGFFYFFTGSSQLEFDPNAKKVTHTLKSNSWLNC

SMILES	Ki [nM]
O=C(C[C@@H](CCCc1ccc(F)cc1)C(=O)N[C@@H](CC1CCCCC1)C(=O)NCCc1ccccc1)NO	13.5
COc1ccc(CCC[C@H](CC(=O)NO)C(=O)N[C@@H](CC2CCCCC2)C(=O)NCCc2ccccc2)cc1	4.16
O=C(C[C@@H](CCCc1ccc(Cl)cc1)C(=O)N[C@@H](CC1CCCCC1)C(=O)NCCc1ccccc1)NO	7.31
Cc1ccc(CCC[C@H](CC(=O)NO)C(=O)N[C@@H](CC2CCCCC2)C(=O)NCCc2ccccc2)cc1	8.24
CN(C)CCCCNC(=O)[C@H](CC1CCCCC1)NC(=O)[C@H](CCCc1ccc(Cl)cc1)CC(=O)NO	22.2
O=C(C[C@@H](Cc1ccccc1)C(=O)N[C@@H](CC1CCCCC1)C(=O)NCCc1ccccc1)NO	> 10000
Cc1ccc(CCC[C@H](CC(=O)NO)C(=O)N[C@@H](CC2CCCCC2)C(=O)NCCN2CCOCC2)cc1	6.26
CCc1ccc(CCC[C@H](CC(=O)NO)C(=O)N[C@@H](CC2CCCCC2)C(=O)NCCc2ccccc2)cc1	5.44
O=C(C[C@@H](CCCCc1ccccc1)C(=O)N[C@@H](CC1CCCCC1)C(=O)NCCc1ccccc1)NO	177
O=C(C[C@@H](CCCc1ccccc1)C(=O)N[C@@H](CC1CCCCC1)C(=O)NCCc1ccccc1)NO	8.3
O=C(C[C@@H](CCCc1ccc(C(F)(F)F)cc1)C(=O)N[C@@H](CC1CCCCC1)C(=O)NCCc1ccccc1)NO	90.3
CC(C)C[C@H](CC(=O)NO)C(=O)N[C@@H](CC1CCCCC1)C(=O)NCCc1ccccc1	25.3
O=C(C[C@@H](CCc1ccccc1)C(=O)N[C@@H](CC1CCCCC1)C(=O)NCCc1ccccc1)NO	77
O=C(C[C@@H](CCCc1ccccc1)C(=O)N[C@@H](CC1CCCCC1)C(=O)NCCc1ccc(S(=O)(=O)O)cc1)NO	8.15
Cc1ccc(CCC[C@H](CC(=O)NO)C(=O)N[C@@H](CC2CCCCC2)C(=O)NCCc2ccc(S(N)(=O)=O)cc2)cc1	2.98
NS(=O)(=O)c1ccc(CCNC(=O)[C@H](CC2CCCCC2)NC(=O)[C@H](CCCc2ccc(Cl)cc2)CC(=O)NO)cc1	6.35
COC(=O)CCNC(=O)[C@H](CC1CCCCC1)NC(=O)[C@H](CCCc1ccc(Cl)cc1)CC(=O)NO	0.96
O=C(C[C@@H](CCCc1ccc(Cl)cc1)C(=O)N[C@@H](CC1CCCCC1)C(=O)NCCC(=O)N1CCOCC1)NO	1.38
O=C(O)CCNC(=O)[C@H](CC1CCCCC1)NC(=O)[C@H](CCCc1ccc(Cl)cc1)CC(=O)NO	0.8
O=C(C[C@@H](CCCc1ccc(Cl)cc1)C(=O)N[C@@H](CC1CCCCC1)C(=O)NCCCCN1CCOCC1)NO	2.39
Cc1ccc(CCC[C@H](CC(=O)NO)C(=O)N[C@@H](CC2CCCCC2)C(=O)NCCCCN(C)C)cc1	5.87
CC(C)C[C@H](CC(=O)NO)C(=O)N[C@@H](CC(C)C)C(=O)N[C@@H](Cc1ccccc1)C(N)=O	127
Cc1ccc(CCC[C@H](CC(=O)NO)C(=O)N[C@@H](CC2CCCCC2)C(=O)NCCCCN2CCOCC2)cc1	2.61

target: T1, Interstitial collagenase (Homo sapiens, UniProt P03956); experiment: Inhibition of the collagenase enzyme.
T1 sequence (P03956 whole entry): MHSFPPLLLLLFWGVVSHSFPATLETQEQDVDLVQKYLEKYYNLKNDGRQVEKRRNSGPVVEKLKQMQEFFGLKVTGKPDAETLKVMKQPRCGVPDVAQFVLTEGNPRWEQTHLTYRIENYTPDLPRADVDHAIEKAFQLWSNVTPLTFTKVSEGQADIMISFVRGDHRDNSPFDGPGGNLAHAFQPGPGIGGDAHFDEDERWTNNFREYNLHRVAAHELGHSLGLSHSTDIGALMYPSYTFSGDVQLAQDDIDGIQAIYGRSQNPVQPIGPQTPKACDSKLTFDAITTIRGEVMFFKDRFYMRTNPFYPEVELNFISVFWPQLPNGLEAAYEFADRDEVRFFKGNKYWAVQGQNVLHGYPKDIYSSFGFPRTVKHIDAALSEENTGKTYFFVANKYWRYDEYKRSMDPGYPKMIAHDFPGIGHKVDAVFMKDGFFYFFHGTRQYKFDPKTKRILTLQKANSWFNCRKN

SMILES	Ki [nM]
O=C(C[C@@H](CCCc1ccc(F)cc1)C(=O)N[C@@H](CC1CCCCC1)C(=O)NCCc1ccccc1)NO	296
COc1ccc(CCC[C@H](CC(=O)NO)C(=O)N[C@@H](CC2CCCCC2)C(=O)NCCc2ccccc2)cc1	1530
Cc1ccc(CCC[C@H](CC(=O)NO)C(=O)N[C@@H](CC2CCCCC2)C(=O)NCCc2ccccc2)cc1	921
CN(C)CCCCNC(=O)[C@H](CC1CCCCC1)NC(=O)[C@H](CCCc1ccc(Cl)cc1)CC(=O)NO	1050
O=C(C[C@@H](Cc1ccccc1)C(=O)N[C@@H](CC1CCCCC1)C(=O)NCCc1ccccc1)NO	> 10000
Cc1ccc(CCC[C@H](CC(=O)NO)C(=O)N[C@@H](CC2CCCCC2)C(=O)NCCN2CCOCC2)cc1	455
CCc1ccc(CCC[C@H](CC(=O)NO)C(=O)N[C@@H](CC2CCCCC2)C(=O)NCCc2ccccc2)cc1	5120
O=C(C[C@@H](CCCCc1ccccc1)C(=O)N[C@@H](CC1CCCCC1)C(=O)NCCc1ccccc1)NO	2500
O=C(C[C@@H](CCCc1ccccc1)C(=O)N[C@@H](CC1CCCCC1)C(=O)NCCc1ccccc1)NO	203
O=C(C[C@@H](CCCc1ccc(C(F)(F)F)cc1)C(=O)N[C@@H](CC1CCCCC1)C(=O)NCCc1ccccc1)NO	5000
CC(C)C[C@H](CC(=O)NO)C(=O)N[C@@H](CC1CCCCC1)C(=O)NCCc1ccccc1	7.8
O=C(C[C@@H](CCc1ccccc1)C(=O)N[C@@H](CC1CCCCC1)C(=O)NCCc1ccccc1)NO	618
O=C(C[C@@H](CCCc1ccccc1)C(=O)N[C@@H](CC1CCCCC1)C(=O)NCCc1ccc(S(=O)(=O)O)cc1)NO	942
Cc1ccc(CCC[C@H](CC(=O)NO)C(=O)N[C@@H](CC2CCCCC2)C(=O)NCCc2ccc(S(N)(=O)=O)cc2)cc1	329
NS(=O)(=O)c1ccc(CCNC(=O)[C@H](CC2CCCCC2)NC(=O)[C@H](CCCc2ccc(Cl)cc2)CC(=O)NO)cc1	382
COC(=O)CCNC(=O)[C@H](CC1CCCCC1)NC(=O)[C@H](CCCc1ccc(Cl)cc1)CC(=O)NO	135
O=C(C[C@@H](CCCc1ccc(Cl)cc1)C(=O)N[C@@H](CC1CCCCC1)C(=O)NCCC(=O)N1CCOCC1)NO	319
O=C(O)CCNC(=O)[C@H](CC1CCCCC1)NC(=O)[C@H](CCCc1ccc(Cl)cc1)CC(=O)NO	193
O=C(C[C@@H](CCCc1ccc(Cl)cc1)C(=O)N[C@@H](CC1CCCCC1)C(=O)NCCCCN1CCOCC1)NO	313
Cc1ccc(CCC[C@H](CC(=O)NO)C(=O)N[C@@H](CC2CCCCC2)C(=O)NCCCCN(C)C)cc1	313
CC(C)C[C@H](CC(=O)NO)C(=O)N[C@@H](CC(C)C)C(=O)N[C@@H](Cc1ccccc1)C(N)=O	303
Cc1ccc(CCC[C@H](CC(=O)NO)C(=O)N[C@@H](CC2CCCCC2)C(=O)NCCCCN2CCOCC2)cc1	642

target: 72 kDa type IV collagenase (Homo sapiens, UniProt P08253); experiment: Inhibition of the gelatinase-A enzyme.
Sequence (P08253 whole entry): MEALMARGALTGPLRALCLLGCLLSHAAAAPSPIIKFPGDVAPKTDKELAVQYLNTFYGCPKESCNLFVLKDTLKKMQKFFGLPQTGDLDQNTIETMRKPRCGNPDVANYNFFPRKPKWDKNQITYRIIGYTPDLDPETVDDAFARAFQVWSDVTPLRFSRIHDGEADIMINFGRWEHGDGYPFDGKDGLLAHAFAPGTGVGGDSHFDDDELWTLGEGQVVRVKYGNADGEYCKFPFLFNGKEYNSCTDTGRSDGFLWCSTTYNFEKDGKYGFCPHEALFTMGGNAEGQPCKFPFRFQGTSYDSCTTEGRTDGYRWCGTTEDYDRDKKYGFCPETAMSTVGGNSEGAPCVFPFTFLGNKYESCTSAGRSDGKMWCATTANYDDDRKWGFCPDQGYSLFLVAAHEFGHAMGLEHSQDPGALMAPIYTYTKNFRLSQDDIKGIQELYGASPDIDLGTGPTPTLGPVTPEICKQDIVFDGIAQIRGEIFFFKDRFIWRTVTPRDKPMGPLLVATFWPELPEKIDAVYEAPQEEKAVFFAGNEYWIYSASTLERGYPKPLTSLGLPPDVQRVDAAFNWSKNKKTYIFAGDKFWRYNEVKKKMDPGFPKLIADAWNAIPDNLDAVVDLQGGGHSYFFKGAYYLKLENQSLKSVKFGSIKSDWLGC

SMILES	Ki [nM]
O=C(C[C@@H](CCCc1ccc(F)cc1)C(=O)N[C@@H](CC1CCCCC1)C(=O)NCCc1ccccc1)NO	0.06
COc1ccc(CCC[C@H](CC(=O)NO)C(=O)N[C@@H](CC2CCCCC2)C(=O)NCCc2ccccc2)cc1	0.06
O=C(C[C@@H](CCCc1ccc(Cl)cc1)C(=O)N[C@@H](CC1CCCCC1)C(=O)NCCc1ccccc1)NO	0.03
Cc1ccc(CCC[C@H](CC(=O)NO)C(=O)N[C@@H](CC2CCCCC2)C(=O)NCCc2ccccc2)cc1	0.08
CN(C)CCCCNC(=O)[C@H](CC1CCCCC1)NC(=O)[C@H](CCCc1ccc(Cl)cc1)CC(=O)NO	0.05
O=C(C[C@@H](Cc1ccccc1)C(=O)N[C@@H](CC1CCCCC1)C(=O)NCCc1ccccc1)NO	1900
O=C(C[C@@H](CCCC1CCCCC1)C(=O)N[C@@H](CC1CCCCC1)C(=O)NCCc1ccccc1)NO	6.9
Cc1ccc(CCC[C@H](CC(=O)NO)C(=O)N[C@@H](CC2CCCCC2)C(=O)NCCN2CCOCC2)cc1	0.01
CCc1ccc(CCC[C@H](CC(=O)NO)C(=O)N[C@@H](CC2CCCCC2)C(=O)NCCc2ccccc2)cc1	0.1
O=C(C[C@@H](CCCCc1ccccc1)C(=O)N[C@@H](CC1CCCCC1)C(=O)NCCc1ccccc1)NO	0.254
O=C(C[C@@H](CCCc1ccccc1)C(=O)N[C@@H](CC1CCCCC1)C(=O)NCCc1ccccc1)NO	0.062
O=C(C[C@@H](CCCc1ccc(C(F)(F)F)cc1)C(=O)N[C@@H](CC1CCCCC1)C(=O)NCCc1ccccc1)NO	0.3
CC(C)C[C@H](CC(=O)NO)C(=O)N[C@@H](CC1CCCCC1)C(=O)NCCc1ccccc1	0.33
O=C(C[C@@H](CCc1ccccc1)C(=O)N[C@@H](CC1CCCCC1)C(=O)NCCc1ccccc1)NO	2.24
O=C(C[C@@H](CCCc1ccccc1)C(=O)N[C@@H](CC1CCCCC1)C(=O)NCCc1ccc(S(=O)(=O)O)cc1)NO	0.59
O=C(C[C@@H](CCCc1ccc(Cl)cc1)C(=O)N[C@@H](CC1CCCCC1)C(=O)NCCNS(=O)(=O)N1CCOCC1)NO	0.01
Cc1ccc(CCC[C@H](CC(=O)NO)C(=O)N[C@@H](CC2CCCCC2)C(=O)NCCc2ccc(S(N)(=O)=O)cc2)cc1	0.01
NS(=O)(=O)c1ccc(CCNC(=O)[C@H](CC2CCCCC2)NC(=O)[C@H](CCCc2ccc(Cl)cc2)CC(=O)NO)cc1	0.03
COC(=O)CCNC(=O)[C@H](CC1CCCCC1)NC(=O)[C@H](CCCc1ccc(Cl)cc1)CC(=O)NO	0.01
O=C(C[C@@H](CCCc1ccc(Cl)cc1)C(=O)N[C@@H](CC1CCCCC1)C(=O)NCCC(=O)N1CCOCC1)NO	0.02
O=C(O)CCNC(=O)[C@H](CC1CCCCC1)NC(=O)[C@H](CCCc1ccc(Cl)cc1)CC(=O)NO	0.01
Cc1ccc(CCC[C@H](CC(=O)NO)C(=O)N[C@@H](CC2CCCCC2)C(=O)NCCNS(=O)(=O)N2CCOCC2)cc1	0.01
O=C(C[C@@H](CCCc1ccc(Cl)cc1)C(=O)N[C@@H](CC1CCCCC1)C(=O)NCCCCN1CCOCC1)NO	0.03
Cc1ccc(CCC[C@H](CC(=O)NO)C(=O)N[C@@H](CC2CCCCC2)C(=O)NCCCCN(C)C)cc1	0.02
Cc1ccc(CCC[C@H](CC(=O)NO)C(=O)N[C@@H](CC2CCCCC2)C(=O)NCCCCN2CCOCC2)cc1	0.02
